For this test, the target named is human TYK2 (JH2domain-pseudokinase) (Homo sapiens (Human), UniProt P29597). The experiment in a line: TYK2 JH2 Domain Binding Assay (KINOMEscan, DiscoveRx). As to conditions: 11-point dilution, duplicate. Here is the method: Binding constants for compounds of the present invention against the JH2 domain were determined by the following protocol for a KINOMEscan® assay (DiscoveRx). A fusion protein of a partial length construct of human TYK2 (JH2domain-pseudokinase) (amino acids G556 to D888 based on reference sequence NP_003322.3) and the DNA binding domain of NFkB was expressed in transiently transfected HEK293 cells. From these HEK 293 cells, extracts were prepared in M-PER extraction buffer (Pierce) in the presence of Protease Inhibitor Cocktail Complete (Roche) and Phosphatase Inhibitor Cocktail Set II (Merck) per manufacturers' instructions. The TYK2 (JH2domain-pseudokinase) fusion protein was labeled with a chimeric double-stranded DNA tag containing the NFkB binding site (5′-GGGAATTCCC-3′) fused to an amplicon for qPCR readout, which was added directly to the expression extract (the final concentration of DNA-tag in the binding reaction is 0.1 nM).
human TYK2 (JH2domain-pseudokinase), sequence (P29597 556-888): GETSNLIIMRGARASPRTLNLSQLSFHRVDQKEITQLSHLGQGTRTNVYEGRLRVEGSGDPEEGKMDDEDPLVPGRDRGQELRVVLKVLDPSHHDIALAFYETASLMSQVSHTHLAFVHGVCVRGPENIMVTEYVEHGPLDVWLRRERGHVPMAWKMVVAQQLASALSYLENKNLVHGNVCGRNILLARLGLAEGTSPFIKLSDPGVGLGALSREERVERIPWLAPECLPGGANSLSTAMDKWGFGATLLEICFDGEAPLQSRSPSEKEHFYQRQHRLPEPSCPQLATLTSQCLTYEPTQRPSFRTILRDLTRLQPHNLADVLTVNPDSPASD
Streptavidin-coated magnetic beads (Dynal M280) were treated with a biotinylated small molecule ligand for 30 minutes at room temperature to generate affinity resins the binding assays. The liganded beads were blocked with excess biotin and washed with blocking buffer (SeaBlock (Pierce), 1% BSA, 0.05% Tween 20, 1 mM DTT) to remove unbound ligand and to reduce nonspecific binding.
The binding reaction was assembled by combining 16 μl of DNA-tagged kinase extract, 3.8 μl liganded affinity beads, and 0.18 μl test compound (PBS/0.05% Tween 20/10 mM DTT/0.1% BSA/2 μg/ml sonicated salmon sperm DNA)]. Extracts were used directly in binding assays without any enzyme purification steps at a ≥10,000-fold overall stock dilution (final DNA-tagged enzyme concentration <0.1 nM). Extracts were loaded with DNA-tag and diluted into the binding reaction in a two step process. First extracts were diluted 1:100 in 1× binding buffer (PBS/0.05% Tween 20/10 mM DTT/0.1% BSA/2 μg/ml sonicated salmon sperm DNA) containing 10 nM DNA-tag. This dilution was allowed to equilibrate at room temperature for 15 minutes and then subsequently diluted 1:100 in 1× binding buffer. Test compounds were prepared as 111× stocks in 100% DMSO. Kds were determined using an 11-point 3-fold compound dilution series with three DMSO control points. All compounds for Kd measurements are distributed by acoustic transfer (non-contact dispensing) in 100% DMSO. The compounds were then diluted directly into the assays such that the final concentration of DMSO was 0.9%. All reactions performed in polypropylene 384-well plates. Each was a final volume of 0.02 mL. Assays were incubated with shaking for 1 hour at room temperature. Then the beads were pelleted and washed with wash buffer (1×PBS, 0.05% Tween 20) to remove displaced kinase and test compound. The washed based were re-suspended in elution buffer (1×PBS, 0.05% Tween 20, 0.5 μM non-biotinylated affinity ligand) and incubated at room temperature with shaking for 30 minutes. The kinase concentration in the eluates was measured by qPCR. qPCR reactions were assembled by adding 2.5 μL of kinase eluate to 7.5 μL of qPCR master mix containing 0.15 μM amplicon primers and 0.15 μM amplicon probe. The qPCR protocol consisted of a 10 minute hot start at 95° C., followed by 35 cycles of 95° C. for 15 seconds, 60° C. for 1 minute.
Test compounds were prepared as 111× stocks in 100% DMSO. Kds were determined using an 11-point 3-fold compound dilution series with three DMSO control points. All compounds for Kd measurements are distributed by acoustic transfer (non-contact dispensing) in 100% DMSO. The compounds were then diluted directly into the assays such that the final concentration of DMSO was 0.9%. The Kds were determined using a compound top concentration of 30,000 nM. Kd measurements were performed in duplicate.
Binding constants (Kds) were calculated with a standard dose-response curve using the Hill equation: […]
The Hill Slope was set to −1. […]
For the compound `COc1c(Nc2cc(Nc3ccc(C)nn3)nc3[nH]c(C(F)F)nc23)cccc1-c1ccn(C)n1` [I-26, 2-(difluoromethyl)-N7-(2-methoxy-3-(1-methyl-1H-pyrazol-3-yl)phenyl)-N5-(6-methylpyridazin-3-yl)-3H-imidazo[4,5-b]pyridine-5,7-diamine], the Kd (commonly a measure of binding affinity in units of concentration) is 0.1 to 0.5 nM.
Turning to `COc1c(Nc2cc(Nc3cncc(C#N)n3)nc3[nH]c(C(F)F)nc23)cccc1-c1ccn(C)n1` [I-27, 6-((2-(difluoromethyl)-7-((2-methoxy-3-(1-methyl-1H-pyrazol-3-yl)phenyl)amino)-3H-imidazo[4,5-b]pyridin-5-yl)amino)pyrazine-2-carbonitrile], the Kd was in the range of 1 to 10 nM.
Turning to `COc1ccccc1Nc1cc(NC(=O)C2CC2)nc2[nH]c(C(F)F)nc12` [I-28, N-(2-(difluoromethyl)-7-((2-methoxyphenyl)amino)-3H-imidazo[4,5-b]pyridin-5-yl)cyclopropanecarboxamide], the dissociation constant Kd is greater than 10 nM.
With `COc1c(C#N)cccc1Nc1cc(NC(=O)C2CC2)nc2[nH]c(C(F)F)nc12` [I-29, N-(7-((3-cyano-2-methoxyphenyl)amino)-2-(difluoromethyl)-3H-imidazo[4,5-b]pyridin-5-yl)cyclopropanecarboxamide] the figure was greater than 10 nM.
`COc1c(Nc2cc(Nc3cncc(C#N)n3)nc3[nH]c(C(F)F)nc23)cccc1-c1nnn(C)n1` [I-30, 6-((2-(difluoromethyl)-7-((2-methoxy-3-(2-methyl-2H-tetrazol-5-yl)phenyl)amino)-3H-imidazo[4,5-b]pyridin-5-yl)amino)pyrazine-2-carbonitrile] registered an equilibrium dissociation constant (Kd) of 1 to 10 nM.
`COc1c(Nc2cc(Nc3ccc(N4CCC4)cn3)nc3[nH]c(C(F)F)nc23)cccc1-c1ccn(C)n1` [I-31, N5-(5-(azetidin-1-yl)pyridin-2-yl)-2-(difluoromethyl)-N7-(2-methoxy-3-(1-methyl-1H-pyrazol-3-yl)phenyl)-3H-imidazo[4,5-b]pyridine-5,7-diamine]: the dissociation constant Kd lay in the range of 1 to 10 nM.
`COc1c(Nc2cc(Nc3cc(C)cc(C#N)n3)nc3[nH]c(C(F)F)nc23)cccc1-c1nnn(C)n1` [I-32, 6-((2-(difluoromethyl)-7-((2-methoxy-3-(2-methyl-2H-tetrazol-5-yl)phenyl)amino)-3H-imidazo[4,5-b]pyridin-5-yl)amino)-4-methylpicolinonitrile] returned a dissociation constant (Kd) of 0.5 to 1 nM.
For `COc1c(Nc2cc(Nc3cc(C)cc(C#N)n3)nc3[nH]c(C(F)F)nc23)cccc1-c1ccn(C)n1` [I-33, 6-((2-(difluoromethyl)-7-((2-methoxy-3-(1-methyl-1H-pyrazol-3-yl)phenyl)amino)-3H-imidazo[4,5-b]pyridin-5-yl)amino)-4-methylpicolinonitrile], the Kd lay within 0.5 to 1 nM.
With `COc1c(Nc2cc(NC(=O)C3CC3)nc3[nH]c(C(F)F)nc23)cccc1-c1cnn(C)c1` [I-34, N-(2-(difluoromethyl)-7-((2-methoxy-3-(1-methyl-1H-pyrazol-4-yl)phenyl)amino)-3H-imidazo[4,5-b]pyridin-5-yl)cyclopropanecarboxamide] the figure was greater than 10 nM; with `COc1cc(C(=O)N2CCCC2)ccc1Nc1cc(NC(=O)C2CC2)nc2[nH]c(C(F)F)nc12` [I-35, N-(2-(difluoromethyl)-7-((2-methoxy-4-(pyrrolidine-1-carbonyl)phenyl)amino)-3H-imidazo[4,5-b]pyridin-5-yl)cyclopropanecarboxamide], 1 to 10 nM; with `COc1c(Nc2cc(Nc3ccc(C(=O)N4CCCC4)c(C(F)(F)F)n3)nc3[nH]c(C(F)F)nc23)cccc1-c1nnn(C)n1` [I-36, (6-((2-(difluoromethyl)-7-((2-methoxy-3-(2-methyl-2H-tetrazol-5-yl)phenyl)amino)-3H-imidazo[4,5-b]pyridin-5-yl)amino)-2-(trifluoromethyl)pyridin-3-yl)(pyrrolidin-1-yl)methanone], 0.1 to 0.5 nM.
With `COc1c(Nc2cc(Nc3ccc(N4CCCC4=O)c(C#N)n3)nc3[nH]c(C(F)F)nc23)cccc1-c1nnn(C)n1` [I-37, 6-((2-(difluoromethyl)-7-((2-methoxy-3-(2-methyl-2H-tetrazol-5-yl)phenyl)amino)-3H-imidazo[4,5-b]pyridin-5-yl)amino)-3-(2-oxopyrrolidin-1-yl)picolinonitrile] the figure was 0.1 to 0.5 nM; with `COc1c(Nc2cc(Nc3cnc(C)c(C#N)n3)nc3[nH]c(C(F)F)nc23)cccc1-c1nnn(C)n1` [I-38, 6-((2-(difluoromethyl)-7-((2-methoxy-3-(2-methyl-2H-tetrazol-5-yl)phenyl)amino)-3H-imidazo[4,5-b]pyridin-5-yl)amino)-3-methylpyrazine-2-carbonitrile], 1 to 10 nM.
Consider `COc1c(Nc2cc(Nc3ccc(N4CC[C@H](OC)C4)c(C#N)n3)nc3[nH]c(C(F)F)nc23)cccc1-c1nnn(C)n1` [I-39, (S)-6-((2-(difluoromethyl)-7-((2-methoxy-3-(2-methyl-2H-tetrazol-5-yl)phenyl)amino)-3H-imidazo[4,5-b]pyridin-5-yl)amino)-3-(3-methoxypyrrolidin-1-yl)picolinonitrile], for which the Kd is 0.1 to 0.5 nM.
As to `COc1c(Nc2cc(Nc3ccc(N4CCC4)c(C#N)n3)nc3[nH]c(C(F)F)nc23)cccc1-c1nnn(C)n1` [I-40, 3-(azetidin-1-yl)-6-((2-(difluoromethyl)-7-((2-methoxy-3-(2-methyl-2H-tetrazol-5-yl)phenyl)amino)-3H-imidazo[4,5-b]pyridin-5-yl)amino)picolinonitrile], the Kd is 0.1 to 0.5 nM.
The compound `COc1c(Nc2cc(NC(=O)C3CC3)nc3[nH]c(C(F)F)nc23)cccc1-c1nc(C)nn1C` [I-41, N-(2-(difluoromethyl)-7-((3-(1,3-dimethyl-1H-1,2,4-triazol-5-yl)-2-methoxyphenyl)amino)-3H-imidazo[4,5-b]pyridin-5-yl)cyclopropanecarboxamide] displayed a Kd greater than 10 nM.
The value for `COc1c(Nc2cc(Nc3ccc(C(C)C)c(C#N)n3)nc3[nH]c(C(F)F)nc23)cccc1-c1nnn(C)n1` [I-42, 6-((2-(difluoromethyl)-7-((2-methoxy-3-(2-methyl-2H-tetrazol-5-yl)phenyl)amino)-3H-imidazo[4,5-b]pyridin-5-yl)amino)-3-isopropylpicolinonitrile] was 1 to 10 nM; that for `Cc1ccc(Nc2cc(Nc3ccccc3N(C)S(C)(=O)=O)c3nc(C(F)F)[nH]c3n2)nn1` [I-43, N-(2-((2-(difluoromethyl)-5-((6-methylpyridazin-3-yl)amino)-3H-imidazo[4,5-b]pyridin-7-yl)amino)phenyl)-N-methylmethanesulfonamide] was 0.1 to 0.5 nM; that for `CN(c1ccccc1Nc1cc(Nc2cccc(C#N)n2)nc2[nH]c(C(F)F)nc12)S(C)(=O)=O` [I-44, N-(2-((5-((6-cyanopyridin-2-yl)amino)-2-(difluoromethyl)-3H-imidazo[4,5-b]pyridin-7-yl)amino)phenyl)-N-methylmethanesulfonamide] was less than 0.1 nM.
With `Cc1cc(Nc2cc(Nc3ccccc3N(C)S(C)(=O)=O)c3nc(C(F)F)[nH]c3n2)nc(C)n1` [I-45, N-(2-((2-(difluoromethyl)-5-((2,6-dimethylpyrimidin-4-yl)amino)-3H-imidazo[4,5-b]pyridin-7-yl)amino)phenyl)-N-methylmethanesulfonamide] the figure was 0.1 to 0.5 nM.
With `COc1c(Nc2cc(Nc3ccc(NCCCCl)c(C#N)n3)nc3[nH]c(C(F)F)nc23)cccc1-c1nnn(C)n1` [I-46, 3-((3-chloropropyl)amino)-6-((2-(difluoromethyl)-7-((2-methoxy-3-(2-methyl-2H-tetrazol-5-yl)phenyl)amino)-3H-imidazo[4,5-b]pyridin-5-yl)amino)picolinonitrile] the figure was 0.5 to 1 nM.

The values above are taken from patent US10647713B2 (Nimbus Lakshmi, Inc., priority 2016, dated 2020).
